Measurements published in patent US11053204B2, “Pyrimidinyloxy benzene derivatives as herbicides” (FMC Corporation, priority 2015, dated 2021).

Columns and labels:
Type in all cases: in vivo
[1] = tested on: Italian ryegrass (Lolium multiflorum); test: Test A preemergence, visual injury rating
Summary of the method: (§1)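 Greenhouse pot test, loam/sand soil. Formulation: non-phytotoxic solvent mix plus surfactant. Pre: directed spray onto soil after sowing. Post: plants at 1–2 leaf, 2–10 cm. Rated visually vs untreated controls at ~10 d, 0 (no effect) to 100 (complete control).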

[2] = tested on: barnyardgrass (Echinochloa crus-galli); test: Test A preemergence, visual injury rating
Summary of the method: as §1

[3] = tested on: giant foxtail (Setaria faberii); test: Test A preemergence, visual injury rating
Summary of the method: as §1

kochia (Kochia scoparia) [4] = test: Test A preemergence, visual injury rating
Summary of the method: as §1

[5] = tested on: pigweed (Amaranthus retroflexus); test: Test A preemergence, visual injury rating
Summary of the method: as §1

[6] = tested on: ragweed (common ragweed, Ambrosia elatior); test: Test A preemergence, visual injury rating
Summary of the method: as §1

[7] = tested on: chickweed (common chickweed, Stellaria media); test: Test C postemergence, plant response rating; conditions: for Chickweed plant response rating: scale 0 to 100 (0 no effect, 100 complete control)
Summary of the method: (§2)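 Pre-emergence: seeds sown in loam soil–sand blend or silt loam and sprayed with test chemicals in a non-phytotoxic solvent mixture with surfactant. Post-emergence: plants 2 to 18 cm (1- to 4-leaf stage) in peat-based potting medium, same formulation. Greenhouse 13 to 15 d; visual rating 0 (no effect) to 100 (complete control) versus controls.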

corn (Zea mays) = test: Test C postemergence, plant response rating; conditions: for Corn plant response rating: scale 0 to 100 (0 no effect, 100 complete control)
Summary of the method: as §2

[8] = tested on: crabgrass, large (large crabgrass, Digitaria sanguinalis); test: Test C postemergence, plant response rating; conditions: for Crabgrass, Large plant response rating: scale 0 to 100 (0 no effect, 100 complete control)
Summary of the method: as §2

[9] = tested on: galium (catchweed bedstraw, Galium aparine); test: Test C postemergence, plant response rating; conditions: for Galium plant response rating: scale 0 to 100 (0 no effect, 100 complete control)
Summary of the method: as §2

kochia (Kochia scoparia) [10] = test: Test C postemergence, plant response rating; conditions: for Kochia plant response rating: scale 0 to 100 (0 no effect, 100 complete control)
Summary of the method: as §2

[11] = tested on: lambsquarters (Chenopodium album); test: Test C postemergence, plant response rating; conditions: for Lambsquarters plant response rating: scale 0 to 100 (0 no effect, 100 complete control)
Summary of the method: as §2

[12] = tested on: nutsedge, yellow (yellow nutsedge, Cyperus esculentus); test: Test C postemergence, plant response rating; conditions: for Nutsedge, Yellow plant response rating: scale 0 to 100 (0 no effect, 100 complete control)
Summary of the method: as §2

[13] = tested on: oat, wild (wild oat Avena fatua); test: Test C postemergence, plant response rating; conditions: for Oat, Wild plant response rating: scale 0 to 100 (0 no effect, 100 complete control)
Summary of the method: as §2

[14] = tested on: ragweed (common ragweed, Ambrosia elatior); test: Test C postemergence, plant response rating; conditions: for Ragweed plant response rating: scale 0 to 100 (0 no effect, 100 complete control)
Summary of the method: as §2

[15] = tested on: ryegrass, Italian (Italian ryegrass, Lolium multiflorum); test: Test C postemergence, plant response rating; conditions: for Ryegrass, Italian plant response rating: scale 0 to 100 (0 no effect, 100 complete control)
Summary of the method: as §2

soybean (Glycine max) = test: Test C postemergence, plant response rating; conditions: for Soybean plant response rating: scale 0 to 100 (0 no effect, 100 complete control)
Summary of the method: as §2

[16] = tested on: waterhemp (common waterhemp, Amaranthus rudis); test: Test C postemergence, plant response rating
Summary of the method: as §2

[17] = 31 g ai/ha, 0 to 100 scale, 0 no effect, 100 complete control
[18] = 125 g ai/ha, 0 to 100 scale (0 no effect, 100 complete control)

O=C(CCCCC(F)(F)F)c1c(Br)cccc1Oc1ncc(Cl)cn1 [Compound 82]
Plant response rating, Ryegrass, Italian [1, 17]: 0 | Ryegrass, Italian plant response rating [1, 18]: 80 | Plant response rating, Barnyardgrass [2, 17]: 50 | Barnyardgrass plant response rating [2, 18]: 100 | Plant response rating, Foxtail, Giant [3, 17]: 90 | Foxtail, Giant plant response rating [3, 18]: 100 | Plant response rating, Kochia (kochia (Kochia scoparia) [4]; [17]): 70 | Kochia plant response rating (kochia (Kochia scoparia) [4]; [18]): 80 | Plant response rating, Pigweed [5, 17]: 90 | Pigweed plant response rating [5, 18]: 100 | Plant response rating, Ragweed [6, 17]: 0 | Ragweed plant response rating [6, 18]: 60 | Plant response rating, Chickweed ([7]; 16 g ai/ha, scale of 0 to 100): 55 | Plant response rating, Chickweed ([7]; 31 g ai/ha, scale 0 to 100): 85 | Chickweed plant response rating ([7]; 62 g ai/ha): 90 | Chickweed plant response rating ([7]; 125 g ai/ha): 90 | Plant response rating, Corn (corn (Zea mays); 16 g ai/ha, scale of 0 to 100): 20 | Plant response rating, Corn (corn (Zea mays); 31 g ai/ha, scale 0 to 100): 20 | Corn plant response rating (corn (Zea mays); 62 g ai/ha): 25 | Corn plant response rating (corn (Zea mays); 125 g ai/ha): 25 | Plant response rating, Crabgrass, Large ([8]; 16 g ai/ha, scale of 0 to 100): 10 | Plant response rating, Crabgrass, Large ([8]; 31 g ai/ha, scale 0 to 100): 30 | Crabgrass, Large plant response rating ([8]; 62 g ai/ha): 30 | Crabgrass, Large plant response rating ([8]; 125 g ai/ha): 20 | Plant response rating, Galium ([9]; 16 g ai/ha, scale of 0 to 100): 50 | Plant response rating, Galium ([9]; 31 g ai/ha, scale 0 to 100): 75 | Galium plant response rating ([9]; 62 g ai/ha): 85 | Galium plant response rating ([9]; 125 g ai/ha): 90 | Plant response rating, Kochia (kochia (Kochia scoparia) [10]; 16 g ai/ha, scale of 0 to 100): 80 | Plant response rating, Kochia (kochia (Kochia scoparia) [10]; 31 g ai/ha, scale 0 to 100): 95 | Kochia plant response rating (kochia (Kochia scoparia) [10]; 62 g ai/ha): 95 | Kochia plant response rating (kochia (Kochia scoparia) [10]; 125 g ai/ha): 95 | Plant response rating, Lambsquarters ([11]; 16 g ai/ha, scale of 0 to 100): 70 | Plant response rating, Lambsquarters ([11]; 31 g ai/ha, scale 0 to 100): 75 | Lambsquarters plant response rating ([11]; 62 g ai/ha): 85 | Lambsquarters plant response rating ([11]; 125 g ai/ha): 90 | Plant response rating, Nutsedge, Yellow ([12]; 16 g ai/ha, scale of 0 to 100): 10 | Plant response rating, Nutsedge, Yellow ([12]; 31 g ai/ha, scale 0 to 100): 10 | Nutsedge, Yellow plant response rating ([12]; 62 g ai/ha): 20 | Nutsedge, Yellow plant response rating ([12]; 125 g ai/ha): 10 | Plant response rating, Oat, Wild ([13]; 16 g ai/ha, scale of 0 to 100): 25 | Plant response rating, Oat, Wild ([13]; 31 g ai/ha, scale 0 to 100): 40 | Oat, Wild plant response rating ([13]; 62 g ai/ha): 40 | Oat, Wild plant response rating ([13]; 125 g ai/ha): 50 | Plant response rating, Ragweed ([14]; 16 g ai/ha, scale of 0 to 100): 40 | Plant response rating, Ragweed ([14]; 31 g ai/ha, scale 0 to 100): 35 | Ragweed plant response rating ([14]; 62 g ai/ha): 60 | Ragweed plant response rating ([14]; 125 g ai/ha): 55 | Plant response rating, Ryegrass, Italian ([15]; 16 g ai/ha, scale of 0 to 100): 5 | Plant response rating, Ryegrass, Italian ([15]; 31 g ai/ha, scale 0 to 100): 15 | Ryegrass, Italian plant response rating ([15]; 62 g ai/ha): 20 | Ryegrass, Italian plant response rating ([15]; 125 g ai/ha): 25 | Plant response rating, Soybean (soybean (Glycine max); 16 g ai/ha, scale of 0 to 100): 25 | Plant response rating, Soybean (soybean (Glycine max); 31 g ai/ha, scale 0 to 100): 60 | Soybean plant response rating (soybean (Glycine max); 62 g ai/ha): 35 | Soybean plant response rating (soybean (Glycine max); 125 g ai/ha): 40 | Plant response rating, Waterhemp ([16]; 16 g ai/ha, scale of 0 to 100): 65 | Plant response rating, Waterhemp ([16]; 31 g ai/ha, scale 0 to 100): 95 | Waterhemp plant response rating ([16]; 125 g ai/ha, scale 0 to 100 (0 no effect, 100 complete control)): 95
